Results: ChEMBL document CHEMBL3885881, “DrugMatrix”

Species: Rattus norvegicus
Experiment: DrugMatrix - Regimen: Daily Repeat
Type: toxicity, organism-based, Sprague-Dawley
Design: regimen Daily Repeat, gender Male, age 6-8 weeks
Conditions: in vivo, po, route oral GAVAGE, […]; for ABSOLUTE BASOPHIL / BASOPHIL / EOSINOPHIL / ERYTHROCYTE COUNT / HEMATOCRIT / HEMOGLOBIN / LEUKOCYTE COUNT / LYMPHOCYTE / MEAN CORPUSCULAR HEMOGLOBIN / MEAN CORPUSCULAR HEMOGLOBIN CONCENTRATION / MEAN CORPUSCULAR VOLUME / MONOCYTE / NEUTROPHIL / PLATELET COUNT: tissue Blood
[1] = 30 mg/kg, 120 h, tissue Plasma, dose level Low, time 5 day
[2] = 35 mg/kg, 72 h, dose level Low, time 3 day
[3] = 35 mg/kg, 72 h, tissue Plasma, dose level Low, time 3 day
[4] = 35 mg/kg, 120 h, dose level Low, time 5 day
[5] = 35 mg/kg, 120 h, tissue Plasma, dose level Low, time 5 day
[6] = 400 mg/kg, 72 h, dose level High, time 3 day
[7] = 400 mg/kg, 72 h, tissue Plasma, dose level High, time 3 day
[8] = 400 mg/kg, 120 h, dose level High, time 5 day
[9] = 400 mg/kg, 120 h, tissue Plasma, dose level High, time 5 day

Cc1ccc(-c2cc(C(F)(F)F)nn2-c2ccc(S(N)(=O)=O)cc2)cc1 [CELECOXIB]
ALBUMIN [1]: 3.93 G/DL
ALKALINE PHOSPHATASE [1]: 354.33 u/L
ASPARTATE AMINOTRANSFERASE [1]: 82.67 u/L
BLOOD UREA NITROGEN [1]: 10.67 mg/dL
CARBON DIOXIDE [1]: 25 mmol/L
CHLORIDE [1]: 101 MEQ/L
CHOLESTEROL [1]: 56.33 mg/dL
CREATINE PHOSPHOKINASE [1]: 247 u/L
CREATININE [1]: 0.12 mg/dL
GLUCOSE [1]: 191.67 mg/dL
LACTATE DEHYDROGENASE [1]: 107 u/L
LIPASE [1]: 6.33 u/L
PHOSPHORUS [1]: 12.27 mg/dL
POTASSIUM [1]: 5.29 MEQ/L
SODIUM [1]: 142.9 MEQ/L
TOTAL BILIRUBIN [1]: 0.2 mg/dL
TOTAL PROTEIN [1]: 5.8 G/DL
URIC ACID [1]: 1.67 mg/dL
ABSOLUTE BASOPHIL [2]: 23.3 cells/µL
BASOPHIL [2]: 0.2%
EOSINOPHIL [2]: 0.57%
ERYTHROCYTE COUNT [2]: 6.93 x10E6/uL
HEMATOCRIT [2]: 43.8%
HEMOGLOBIN [2]: 14.23 G/DL
LEUKOCYTE COUNT [2]: 11.06 x10E3/uL
LYMPHOCYTE [2]: 78.9%
MEAN CORPUSCULAR HEMOGLOBIN [2]: 20.57 pg
MEAN CORPUSCULAR HEMOGLOBIN CONCENTRATION [2]: 32.53 G/DL
MEAN CORPUSCULAR VOLUME [2]: 63.27 fL
MONOCYTE [2]: 2.2%
NEUTROPHIL [2]: 16.8%
PLATELET COUNT [2]: 1233.67 x10E3/uL
ALANINE AMINOTRANSFERASE [3]: 48 u/L
ALBUMIN [3]: 3.53 G/DL
ALKALINE PHOSPHATASE [3]: 409.67 u/L
ASPARTATE AMINOTRANSFERASE [3]: 65 u/L
BLOOD UREA NITROGEN [3]: 10.33 mg/dL
CHLORIDE [3]: 105.67 MEQ/L
CHOLESTEROL [3]: 68.67 mg/dL
CREATINE PHOSPHOKINASE [3]: 192.67 u/L
CREATININE [3]: 0.37 mg/dL
GLUCOSE [3]: 180 mg/dL
PHOSPHORUS [3]: 12.47 mg/dL
POTASSIUM [3]: 6.47 MEQ/L
SODIUM [3]: 146.67 MEQ/L
TOTAL BILIRUBIN [3]: 0.43 mg/dL
TOTAL PROTEIN [3]: 5.63 G/DL
ABSOLUTE BASOPHIL [4]: 56.7 cells/µL
BASOPHIL [4]: 0.5%
EOSINOPHIL [4]: 0.17%
ERYTHROCYTE COUNT [4]: 6.92 x10E6/uL
HEMATOCRIT [4]: 43.47%
HEMOGLOBIN [4]: 14.1 G/DL
LEUKOCYTE COUNT [4]: 12.56 x10E3/uL
LYMPHOCYTE [4]: 82.3%
MEAN CORPUSCULAR HEMOGLOBIN [4]: 20.4 pg
MEAN CORPUSCULAR HEMOGLOBIN CONCENTRATION [4]: 32.43 G/DL
MEAN CORPUSCULAR VOLUME [4]: 62.8 fL
MONOCYTE [4]: 1.9%
NEUTROPHIL [4]: 13.9%
PLATELET COUNT [4]: 1178.33 x10E3/uL
ALANINE AMINOTRANSFERASE [5]: 42 u/L
ALBUMIN [5]: 3.57 G/DL
ALKALINE PHOSPHATASE [5]: 324.67 u/L
ASPARTATE AMINOTRANSFERASE [5]: 63.67 u/L
BLOOD UREA NITROGEN [5]: 9.67 mg/dL
CHLORIDE [5]: 103 MEQ/L
CHOLESTEROL [5]: 76.67 mg/dL
CREATINE PHOSPHOKINASE [5]: 179.33 u/L
CREATININE [5]: 0.37 mg/dL
GLUCOSE [5]: 187.33 mg/dL
PHOSPHORUS [5]: 11.8 mg/dL
POTASSIUM [5]: 6.73 MEQ/L
SODIUM [5]: 146 MEQ/L
TOTAL BILIRUBIN [5]: 0.33 mg/dL
TOTAL PROTEIN [5]: 5.9 G/DL
ABSOLUTE BASOPHIL [6]: 30 cells/µL
BASOPHIL [6]: 0.27%
EOSINOPHIL [6]: 0.6%
ERYTHROCYTE COUNT [6]: 6.71 x10E6/uL
HEMATOCRIT [6]: 42.57%
HEMOGLOBIN [6]: 14.27 G/DL
LEUKOCYTE COUNT [6]: 12.22 x10E3/uL
LYMPHOCYTE [6]: 70.53%
MEAN CORPUSCULAR HEMOGLOBIN [6]: 21.27 pg
MEAN CORPUSCULAR HEMOGLOBIN CONCENTRATION [6]: 33.53 G/DL
MEAN CORPUSCULAR VOLUME [6]: 63.47 fL
MONOCYTE [6]: 3.27%
NEUTROPHIL [6]: 24.33%
PLATELET COUNT [6]: 1571.33 x10E3/uL
ALANINE AMINOTRANSFERASE [7]: 62 u/L
ALBUMIN [7]: 3.4 G/DL
ALKALINE PHOSPHATASE [7]: 437.67 u/L
ASPARTATE AMINOTRANSFERASE [7]: 74.67 u/L
BLOOD UREA NITROGEN [7]: 9.33 mg/dL
CHLORIDE [7]: 106.67 MEQ/L
CHOLESTEROL [7]: 88.33 mg/dL
CREATINE PHOSPHOKINASE [7]: 191.67 u/L
CREATININE [7]: 0.33 mg/dL
GLUCOSE [7]: 177.33 mg/dL
PHOSPHORUS [7]: 12.6 mg/dL
POTASSIUM [7]: 6.63 MEQ/L
SODIUM [7]: 145 MEQ/L
TOTAL BILIRUBIN [7]: 0.33 mg/dL
TOTAL PROTEIN [7]: 5.53 G/DL
ABSOLUTE BASOPHIL [8]: 190 cells/µL
BASOPHIL [8]: 1.28%
EOSINOPHIL [8]: 0.3%
ERYTHROCYTE COUNT [8]: 6.61 x10E6/uL
HEMATOCRIT [8]: 42.7%
HEMOGLOBIN [8]: 13.26 G/DL
LEUKOCYTE COUNT [8]: 18.19 x10E3/uL
LYMPHOCYTE [8]: 68.98%
MEAN CORPUSCULAR HEMOGLOBIN [8]: 20.16 pg
MEAN CORPUSCULAR HEMOGLOBIN CONCENTRATION [8]: 31.14 G/DL
MEAN CORPUSCULAR VOLUME [8]: 64.7 fL
MONOCYTE [8]: 2.54%
NEUTROPHIL [8]: 25.24%
PLATELET COUNT [8]: 1512.2 x10E3/uL
ALANINE AMINOTRANSFERASE [9]: 41.6 u/L
ALBUMIN [9]: 3.44 G/DL
ALKALINE PHOSPHATASE [9]: 451.2 u/L
ASPARTATE AMINOTRANSFERASE [9]: 64.8 u/L
BLOOD UREA NITROGEN [9]: 11.2 mg/dL
CHLORIDE [9]: 105.8 MEQ/L
CHOLESTEROL [9]: 91.6 mg/dL
CREATINE PHOSPHOKINASE [9]: 166.4 u/L
CREATININE [9]: 0.34 mg/dL
GLUCOSE [9]: 185.8 mg/dL
PHOSPHORUS [9]: 12.94 mg/dL
POTASSIUM [9]: 7.1 MEQ/L
SODIUM [9]: 151 MEQ/L
TOTAL BILIRUBIN [9]: 0.2 mg/dL
TOTAL PROTEIN [9]: 5.9 G/DL
